Test results from patent US11066412B2, “Substituted pyrrolo[2,1-a]phthalazines and benzo[g]pyrrolo[2,1-a]phthalazines for the treatment of cancer” (Academia Sinica, priority 2017, dated 2021).
Where two headings read alike, the source gives them in different places.

Columns and labels:
[1] = tested on: human lymphoblastic leukemia cell line (CCRF-CEM); assay: in vitro cytotoxicity, PrestoBlue assay; type: cell-based; settings: read-out: IC50 CCRF-CEM
Description: (§1) All representative compounds of Formulae (I-A) and (I-B) were first evaluated for their in vitro cytotoxicity to human lymphoblastic leukemia cell line (CCRF-CEM) and its vinblastine-resistant sub-cell line (CCRF-CEM/VBL) (see Table 1).
(§2) After a 72-hr incubation in various concentrations of the newly synthesized compounds, the cytotoxic effects of them to all cell lines were determined by the PrestoBlue®(Invitrogen) assay using a microplate spectrophotometer. Briefly, at the end of treatment, an aliquot of PrestoBlue® solution was added and then cells were incubated at 37° C. for 1-2 hr. The absorbance at 570 and 600 nm was measured with a microplate reader. […] The ICso is defined by the concentration required to inhibit tumor cell growth by 50%. Data represent the mean±STDEV of three to six independent experiments for each compound.

[2] = tested on: colon cancer HCT-116; assay: in vitro cytotoxicity, PrestoBlue assay; type: cell-based, human; settings: Table 2
Description: as §1, §2

[3] = tested on: non-small cell lung cancer H460; assay: in vitro cytotoxicity, PrestoBlue assay; type: cell-based, human; settings: Table 2
Description: as §1, §2

[4] = tested on: pancreatic cancer PacaS1; assay: in vitro cytotoxicity, PrestoBlue assay; type: cell-based, human; settings: Table 2
Description: as §1, §2

[5] = tested on: vinblastine-resistant sub-cell line (CCRF-CEM/VBL); assay: in vitro cytotoxicity, PrestoBlue assay; type: cell-based, human; settings: for IC50: read-out: IC50 CEM/VBL; for resistance factor (IC50 CEM/VBL vs IC50 of the parent cell line): number in brackets
Description: as §1, §2

[6] = tested on: small cell lung cancer H526; assay: in vitro cytotoxicity, PrestoBlue assay; type: cell-based, human
[7] = tested on: H1417; assay: in vitro cytotoxicity to SCLC cells; type: cell-based, human; settings: Table 3
Description: as §2

[8] = tested on: H146; assay: in vitro cytotoxicity to SCLC cells; type: cell-based, human; settings: Table 3
Description: as §2

[9] = tested on: H211; assay: in vitro cytotoxicity to SCLC cells; type: cell-based, human; settings: Table 3
Description: as §2

[10] = tested on: H82; assay: in vitro cytotoxicity to SCLC cells; type: cell-based, human; settings: Table 3
Description: as §2

[11] = tested on: pEGFP-N1 plasmid DNA; assay: DNA cross-linking, alkaline agarose gel electrophoresis; type: biochemical; settings: 1-20 μM, 37° C., 2 hrs; FIG. 1
Description: In the present example, BO-2590, BO-2577 (Formula I-A) and BO-2698, BO-2755, BO-2762 and BO-2768 (Formula I-B) were tested for their DNA crosslinking activity, in which the cross-linking was analyzed by alkaline agarose gel electrophoresis. In brief, purified pEGFP-N1 plasmid DNA (1,500 ng) was mixed with various concentrations (1-20 μM) of the tested compounds in 40 μL binding buffer (3 mM sodium chloride/1 mM sodium phosphate, pH 7.4, and 1 mM EDTA). The reaction mixture was incubated at 37° C. for 2 hrs. At the end of reaction, the plasmid DNA was linearized by digestion with BamHI and followed by precipitation with ethanol. The DNA pellets were dissolved and denatured in alkaline buffer (0.5 N NaOH-10mM EDTA). An aliquot of 20 μL of DNA solution (1,000 ng) was mixed with 4 μL of 6× alkaline loading dye and then electrophoretically resolved on a 0.8% alkaline agarose gel with NaOH-EDTA buffer at 4° C. The electrophoresis was carried out at 18V for 22 h. After staining the gels with an ethidium bromide solution, the DNA was visualized under UV light. Results are illustrated in FIG. 1.

[12] = tested on: human SCLC H526 xenografts; assay: tumor growth in xenograft-bearing nude mice; type: in vivo; settings: micelle formulation (Kolliphor/TWEEN 80/PEG400/ethanol/D5W); BO-2768 at 20 mg/kg twice daily; FIG. 12, panel A
Description: Athymic nude mice bearing the nu/nu gene were obtained from the National Laboratory Animal Center (Taipei, Taiwan). Male nude mice (6 weeks or older weighing 20-24 g or more) were used for all human tumor xenografts. The tested compounds were intravenously administered through tail vein. Tumor volume was determined by measuring the length x width x height (or width) with calipers. […] For tumor-bearing nude mice during the course of the experiment, the % body weight changes refer to: (the total weight on reading day/the total weight on day treatment started)×100.
In all experiments, the tumor cells were subcutaneously implanted in nude mice, and the BO-2590L was administered via tail vein when the tumor size reaching approximate 100 mm^3. […]
To confirm the therapeutic activity of BO-2590L, comparative experiments carried out by known chemotherapeutic agents, such as vatanalib and cisplatin, were also performed. Briefly, the H526 xenograft-bearing mice were divided into 4 groups which were treated with vehicle, BO-2590L (10 mg/kg, QD×9), vatalanib (100 mg/kg, QD×9), and cisplatin (4 mg/kg, Q2D×3), respectively. Results are illustrated in FIG. 11.
Results are illustrated in FIGS. 12 and 13.

[13] = body weight changes of xenograft-bearing nude mice; type: in vivo; settings: H526 xenograft mice, micelle formulation; FIG. 12, panel B
Description: Athymic nude mice bearing the nu/nu gene were obtained from the National Laboratory Animal Center (Taipei, Taiwan). Male nude mice (6 weeks or older weighing 20-24 g or more) were used for all human tumor xenografts. The tested compounds were intravenously administered through tail vein. Tumor volume was determined by measuring the length x width x height (or width) with calipers. The vehicle used for the tested compounds was normal saline (0.9% NaCl isotonic solution). For tumor-bearing nude mice during the course of the experiment, the % body weight changes refer to: (the total weight on reading day/the total weight on day treatment started)×100.

[14] = 72-hr incubation, mean ± STDEV of three to six experiments

| Compound | IC50 Paca SI [4] [nM] | resistance factor (IC50 CEM/VBL vs IC50 of the parent cell line) [5] [×] | IC50 [1, 14] [nM] | IC50 [2] [nM] | IC50 [3] [nM] | IC50 [5, 14] [nM] | IC50 ([6]; Table 2, read-out: IC50 H526) [nM] | IC50 ([6]; Table 3, read-out: IC50 H526) [nM] | IC50 [7] [nM] | IC50 [8] [nM] | IC50 [9] [nM] | IC50 [10] [nM] | further results |
| --- | --- | --- | --- | --- | --- | --- | --- | --- | --- | --- | --- | --- | --- |
| Cc1c(CO)c(CO)c2c3ccccc3c(N3CCCC3)nn12 [BO-2686, (3-Methyl-6-(pyrrolidin-1-yl)pyrrolo[2,1-a]phthalazine-1,2 diyl)dimethanol] | 11730 ± 1160 | 0.51 |  |  |  |  |  |  |  |  |  |  | IC50 ([1]; Homo sapiens, CCRF-CEM, 72 h): 920 ± 70 nM; IC50 ([2]; Homo sapiens, HCT-116): 3960 ± 60 nM; IC50 ([3]; Homo sapiens, NCI-H460): 3870 ± 730 nM; IC50 ([5]; Homo sapiens, CCRF-CEM, 72 h): 470 ± 50 nM; IC50 ([6]; Homo sapiens, NCI-H526, read-out: IC50 H526): 300 ± 40 nM; melting point: 160 to 162 °C |
| Cc1c(CO)c(CO)c2c3cc4ccccc4cc3c(N3CCOCC3)nn12 [BO-2698] | 880 ± 260 | 0.86 | 380 ± 50 | 1130 ± 20 | 1180 ± 100 | 330 ± 30 | 40 ± 10 | 90 ± 60 | 370 ± 10 | 1020 ± 160 | 220 ± 70 | 400 ± 160 | formation of DNA interstrand crosslinks [11]: induced DNA interstrand crosslinks |
| CCc1c2c(nc3ccc(OC(=O)N4CCC(N5CCCCC5)CC4)cc13)-c1cc3c(c(=O)n1C2)COC(=O)[C@]3(O)CC [Irinotecan, reference compound] |  |  |  |  |  |  |  |  |  |  |  |  | IC50 ([6]; Homo sapiens, NCI-H526, Table 3, read-out: IC50 H526): 590 ± 300 nM; IC50 ([7]; Homo sapiens, NCI-H1417): 9790 ± 840 nM; IC50 ([8]; Homo sapiens, NCI-H146): 11500 ± 6530 nM; IC50 ([9]; Homo sapiens, NCI-H211): 8810 ± 460 nM; IC50 ([10]; Homo sapiens, NCI-H82): 2260 ± 10 nM; tumor size [12]: slowly increased in size; deleterious effects on the bodyweight of the test animals [13]: none |
| CCNC(=O)OCc1c(COC(=O)NCC)c2c3ccccc3c(N(C)C)nn2c1C [BO-2786] | 8010 ± 1400 | 0.75 | 730 ± 50 | 2450 ± 650 | 3470 ± 470 | 550 ± 60 | 570 ± 90 |  |  |  |  |  |  |
| Cc1c(CO)c(CO)c2c3cc4ccccc4cc3c(N3CCCC3)nn12 [BO-2762, (3-Methyl-6-(pyrrolidin-1-yl)benzo[g]pyrrolo[2,1-α]phthalazine-1,2-diyl)dimethanol] | 1040 ± 80 | 0.74 | 190 ± 10 | 930 ± 120 | 780 ± 240 | 140 ± 20 | 50 ± 10 | 30 ± 10 | 600 ± 340 | 1010 ± 240 | 200 ± 120 | 410 ± 150 | formation of DNA interstrand crosslinks [11]: induced DNA interstrand crosslinks |
| Cc1c(CO)c(CO)c2c3cc4ccccc4cc3c(N3CCCCC3)nn12 [BO-2755] | 10010 ± 1640 | 1.26 | 800 ± 90 | 4130 ± 270 | 3030 ± 480 | 1010 ± 110 | 120 ± 40 | 220 ± 60 | 1370 ± 30 | 2650 ± 1390 | 800 ± 330 | 1480 ± 660 | formation of DNA interstrand crosslinks [11]: induced DNA interstrand crosslinks |
| Cc1c(CO)c(CO)c2c3cc4ccccc4cc3c(N3CCC(N4CCCCC4)CC3)nn12 [BO-2792] |  | 1.51 | 17 ± 9 |  |  | 25 ± 5 |  | 3 ± 3 | 250 ± 50 | 200 ± 150 | 20 ± 20 | 40 ± 10 | tumor size [12]: as effective as irinotecan and cisplatin in reducing the tumor size; deleterious effects on the bodyweight of the test animals [13]: none |
| CCNC(=O)OCc1c(COC(=O)NCC)c2c3ccccc3c(N3CCOCC3)nn2c1C [BO-2573, (3-Methyl-6-morpholinopyrrolo[2,1-a]phthalazine-1,2-diyl)bis(methylene)bis(ethylcarbamate)] | 17230 ± 3480 | 0.65 | 690 ± 220 | 1700 ± 210 | 2480 ± 730 | 450 ± 30 | 210 ± 30 |  |  |  |  |  |  |
| Cc1c(CO)c(CO)c2c3ccccc3c(N3CCOCC3)nn12 [BO-2571, (3-Methyl-6-morpholinopyrrolo[2,1-α]phthalazine-1,2-diyl)dimethanol] | 2160 ± 90 | 0.74 | 760 ± 30 | 1670 ± 180 | 2640 ± 520 | 560 ± 60 | 100 ± 10 |  |  |  |  |  |  |
| CCNC(=O)OCc1c(COC(=O)NCC)c2c3cc4ccccc4cc3c(N3CCCCC3)nn2c1C [BO-2757] |  | 1.26 | 950 ± 50 |  |  | 1200 ± 140 |  | 540 ± 180 | 3940 ± 110 | 4190 ± 700 | 1030 ± 250 | 1580 ± 10 |  |
| CCNC(=O)OCc1c(COC(=O)NCC)c2c3cc4ccccc4cc3c(N3CCCC3)nn2c1C [BO-2763, (3-Methyl-6-(pyrrolidin-1-yl)benzo[g]pyrrolo[2,1-α]phthalazine-1,2-diyl)-bis(methylene) bis(ethylcarbamate)] |  | 0.59 | 420 ± 70 |  |  | 250 ± 60 |  | 180 ± 60 | 1150 ± 150 | 2160 ± 500 | 680 ± 590 | 1580 ± 1370 |  |
| CCNC(=O)OCc1c(COC(=O)NCC)c2c3ccccc3c(N3CCCC3)nn2c1C [BO-2716, (3-Methyl-6-(pyrrolidin-1-yl)pyrrolo[2,1-a]phthalazine-1,2-diyl)-bis(methylene) bis(ethylcarbamate)] |  | 1.47 |  |  |  |  |  |  |  |  |  |  | IC50 ([1]; Homo sapiens, CCRF-CEM, 72 h): 1420 ± 90 nM; IC50 ([5]; Homo sapiens, CCRF-CEM, 72 h): 2100 ± 90 nM; melting point: 140 to 142 °C |
| CCNC(=O)OCc1c(COC(=O)NCC)c2c3cc4ccccc4cc3c(N(C)C)nn2c1C [BO-2772, (6-(Dimethylamino)-3-methylbenzo[g]pyrrolo[2,1-α]phthalazine-1,2-diyl)-bis(methylene) bis(ethylcarbamate)] |  | 0.71 | 138 ± 8 |  |  | 99 ± 6 |  | 270 ± 310 | 1010 ± 490 | 1670 ± 240 | 320 ± 200 | 520 ± 160 |  |
| COc1ccc(-c2c(CO)c(CO)c3c4ccccc4c(N4CCOCC4)nn23)cc1 [BO-2629] | 36630 ± 1040 | 0.86 | 6630 ± 1740 | 5200 ± 430 | 18700 ± 1810 | 5750 ± 620 | 1950 ± 260 |  |  |  |  |  |  |
